Laboratory results as given in patent publication US20080207719A1, “Treatment of Epilepsy” (ORION CORPORATION, priority 2003, published 2008).
Values joined by “and” are separate entries in the source; they are usually repeats but may differ in a detail not shown here. Equal values may be shown once.

Experiments:
[1] = system: Male Harlan Sprague-Dawley rats; experiment: Development of epilepsy after status epilepticus (SE) induced by electrical stimulation of the amygdala; chronic treatment started 1 wk after SE; format: in vivo; conditions: for Number of animals with mild (≦1 seizure/day) epilepsy, during treatment / Number of animals with severe (>1 seizure/day) epilepsy, during treatment / Number of animals with mild (≦1 seizure/day) epilepsy, All / Number of animals with severe (>1 seizure/day) epilepsy, All / Number of animals with mild (≦1 seizure/day) epilepsy, after treatment / Number of animals with severe (>1 seizure/day) epilepsy, after treatment: rats after SE; for Number of animals with mild (≦1 seizure/day) epilepsy, during treatment / Number of animals with severe (>1 seizure/day) epilepsy, during treatment: atipamezole 100 μg/kg/h s.c. minipump for 9 wk starting 1 wk after SE, DZP 20 mg/kg i.p. at 3 h after beginning of SE; for Number of animals with severe (>1 seizure/day) epilepsy, during treatment: animals/epileptic animals; for Number of animals with mild (≦1 seizure/day) epilepsy, All / Number of animals with severe (>1 seizure/day) epilepsy, All: both follow-ups (All); for Number of animals with mild (≦1 seizure/day) epilepsy, after treatment / Number of animals with severe (>1 seizure/day) epilepsy, after treatment: follow-up after the 9 wk treatment
Description: To mimic the clinical environment, α2-adrenoceptor antagonist treatment with atipamezole was started 1 wk after induction of status epilepticus (SE) with subcutaneous Alzet minipumps and continued for 9 wk. Two independent studies were carried out.
Male Harlan Sprague-Dawley rats (300-350 g; Netherlands) were used in this study. After implantation of electrodes, rats were housed in individual cages at a temperature of 19-21° C., with humidity at 50-60% and lights on 7.00-19.00. Standard food pellets and water were freely available.
The animals were anaesthetized with an intraperitoneal injection of sodium pentobarbital (60 mg/kg) and chloral hydrate (60 mg/kg) and inserted into a stereotaxic frame (lambda and bregma at the same horizontal level). A pair of stimulating electrodes (0.5 mm tip separation) was implanted into the lateral nucleus of the left amygdala (3.6 mm posterior, 5.0 mm lateral, and 6.5 mm ventral to bregma). One stainless steel screw was inserted into the skull above the right frontal cortex and served as cortical electrode (3 mm anterior to the bregma, 2 mm lateral to midline). Two stainless steel screws were inserted into the skull bilaterally over the cerebellum, which served as indifferent and ground electrodes. The electrodes were fixed with dental acrylate. The rats were allowed to recover from surgical operation for 14 d, after which electrical stimulation was initiated.
After discharge threshold was assessed by stimulating the amygdala with a one-second train of one-msec bipolar square-wave pulses (60 Hz, 50-400 μA peak to peak). Only those rats in which after discharges could be induced at 400 μA or at lower current level were included in the study.
To induce SE, the amygdala was stimulated repeatedly at 500 msec intervals with a train of pulses lasting 100 msec (1 msec 60 Hz bipolar pulses at 400 μA peak to peak). […] Once the criterion of SE was achieved, no further stimulation was given. After 3 h, SE was terminated by injecting diazepam 20 mg/kg (i.p.).
Vehicle (0.9% saline, Natrosteril 9 mg/ml, Baxter, Vantaa, Finland) was administered via subcutaneous Alzet minipumps with a pumping rate of 9.15 μl/h in 1-wk and 2.61 μl/h in 8-wk pumps starting 1 wk after stimulation. Minipumps were implanted subcutaneously to the back between the scapulae according to the instructions provided by manufacturer. For implantation, animals were anesthetized with an intraperitoneal injection of sodium pentobarbital (60 mg/kg) and chloral hydrate (60 mg/kg).
Diazepam was administered at 3 h after the beginning of SE (20 mg/kg, i.p.). Atipamezole treatment was started 1 wk after SE. Compound was administered with subcutaneous Alzet osmotic minipumps and continued for 9 wk. Atipamezole was dissolved into sterile 0.9% NaCl. The concentration of atipamezole was adjusted according to the weight of the rat and pumping rate to obtain a constant flow-rate of 100 μg/kg/h.
• DZP (diazepam)+vehicle (n=11): Rats with SE treated with DZP (20 mg/kg, i.p.) at 3 h after the beginning of SE. Chronic treatment with vehicle (0.9% NaCl, subcutaneous Alzet minipumps) for 9 wk starting 1 wk after SE. • DZP+atipamezole (n=7): Rats with SE treated with DZP (20 mg/kg, i.p.) at 3 h after the beginning of SE. Chronic treatment with atipamezole (100 μg/kg/h, subcutaneous Alzet minipumps) for 9 wk starting 1 wk after SE.
Controls (n=9): Operated, non-stimulated and non-treated controls.
Ø+vehicle (n=11): No treatment at 3 h after the beginning of SE. Chronic treatment with vehicle (0.9% NaCl in subcutaneous Alzet minipump) for 9 wk starting 1 wk after SE.
DZP+vehicle (n=10): Diazepam treatment (20 mg/kg, i.p.) at 3 h after the beginning of SE. Chronic treatment with vehicle (0.9% NaCl in subcutaneous Alzet minipump) for 9 wk starting 1 wk after SE.
Ø+atipamezole (n=10). No treatment at 3 h after the beginning of SE. Chronic treatment with atipamezole (100 μg/kg/h, subcutaneous Alzet minipumps) for 9 wk starting 1 wk after SE.
DZP+atipamezole (n=12). […]

[2] = system: kainate-induced seizures; conditions: acute administration; Halonen T. et al., Brain Res 1995; cited from earlier work
[3] = system: alpha2-adrenoceptor; conditions: background statement, no species differences (human and rodent); cited from earlier work
[4] = system: cortical excitability; conditions: oral administration, humans; Plewnia C et al., Neurosci Lett 2001; cited from earlier work
[5] = listed as Ø + atipamezole, hydrochloride
[6] = listed as Ø/DZP + atipamezole, hydrochloride

Q: Which “Rats with >1 seizure/day” value ([1]; data combined from the two studies) does the source give for `CN1C(=O)CN=C(c2ccccc2)c2cc(Cl)ccc21` [DZP + vehicle] here?
A: 50%

Q: What about the “Number of animals with mild (≦1 seizure/day) epilepsy, during treatment” value [1] of the same compound?
A: 1/4 and 6/10

Q: And the “Number of animals with severe (>1 seizure/day) epilepsy, during treatment” value [1]?
A: 3/4 and 4/10

Q: What about the “Number of animals with mild (≦1 seizure/day) epilepsy, All” value (from here on “Number … (≦1 seizure/day) epilepsy, All”) [1] of the same compound?
A: 2/4 and 5/10

Q: And the “Number of animals with severe (>1 seizure/day) epilepsy, All” value (from here on “Number … (>1 seizure/day) epilepsy, All”) [1]?
A: 2/4 and 5/10

Q: What about the “Number of animals with mild (≦1 seizure/day) epilepsy, after treatment” value [1] of the same compound?
A: 1/3 and 5/9

Q: And the “Number of animals with severe (>1 seizure/day) epilepsy, after treatment” value [1]?
A: 2/3 and 4/9

Q: With `CCC1(c2c[nH]cn2)Cc2ccccc2C1.Cl` [atipamezole, 4-(2-ethyl-2,3-dihydro-1H-inden-2-yl)-1H-imidazole hydrochloride] as the compound, how does the “Number of animals with severe (>1 seizure/day) epilepsy, during treatment” value [1, 5] read?
A: 1/8

Q: And the “Number of animals with severe (>1 seizure/day) epilepsy, during treatment” value [1, 6]?
A: 1/20

Q: And the “Number of animals with mild (≦1 seizure/day) epilepsy, during treatment” value [1, 5]?
A: 7/8

Q: What about the “Number of animals with mild (≦1 seizure/day) epilepsy, during treatment” value [1, 6] of the same compound?
A: 19/20

Q: And the “Number … (≦1 seizure/day) epilepsy, All” value [1, 5]?
A: 7/8

Q: And the “Number … (>1 seizure/day) epilepsy, All” value [1, 5]?
A: 1/8

Q: And the “Number … (≦1 seizure/day) epilepsy, All” value [1, 6]?
A: 21/22

Q: What about the “Number … (>1 seizure/day) epilepsy, All” value [1, 6] of the same compound?
A: 1/22

Q: And the “Number of animals with mild (≦1 seizure/day) epilepsy, after treatment” value [1, 5]?
A: 6/7

Q: And the “Number of animals with severe (>1 seizure/day) epilepsy, after treatment” value [1, 5]?
A: 1/7

Q: What about the “Number of animals with mild (≦1 seizure/day) epilepsy, after treatment” value [1, 6] of the same compound?
A: 19/20

Q: What about the “Number of animals with severe (>1 seizure/day) epilepsy, after treatment” value [1, 6] of the same compound?
A: 1/20

Q: And the Effect on epileptogenesis ([1]; summary statement, epilepsy that develops is milder and can be non-progressive)?
A: clear disease-modifying effect on epileptogenesis

Q: What about the “Effect on kainate-induced seizures” value [2] of the same compound?
A: proconvulsant effect

Q: What about the alpha2/alpha1-selectivity ratio [3] of the same compound?
A: high

Q: Which “Cortical excitability induced by transcranial magnetic stimulation” value [4] does the source give for `COC(=O)[C@@H]1[C@H]2C[C@H]3c4[nH]c5ccccc5c4CCN3C[C@@H]2CC[C@@H]1O` [yohimbine] here?
A: increased cortical excitability
